16 compounds from patent publication US20250214991A1 (Oncopia Therapeutics, Inc. d/b/a/ SK Life Science Labs, priority 2022, published 2025) can be followed below.

The target in one assay is IKZF2 (Homo sapiens (Human), UniProt Q96SW2+Q9UKS7). The assay is described as follows: In vitro IKZF2 HiBit Assay (HEK293T Flp-in-HiBiT cells). Format: cell-based. Conditions: HEK293T Flp-in-HiBiT cells, 6 hrs incubation; for DC50: read-out: IKZF2 HiBit DC50; for Dmax: HEK-293T, read-out: IKZF2 HiBit Dmax (%). Put shortly: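 Remaining tagged Helios was read as lytic HiBiT/LgBiT luminescence normalized to DMSO, yielding binned DC50 and Dmax values. Treatment ran 6 h, with compounds at 11 three-fold doses diluted from 1 mM and 0.1% final DMSO. The cells were HEK293T Flp-in with CRISPR knock-in of HiBiT at the IKZF2 N-terminus.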
Chain of IKZF2 (Q9UKS7 whole entry): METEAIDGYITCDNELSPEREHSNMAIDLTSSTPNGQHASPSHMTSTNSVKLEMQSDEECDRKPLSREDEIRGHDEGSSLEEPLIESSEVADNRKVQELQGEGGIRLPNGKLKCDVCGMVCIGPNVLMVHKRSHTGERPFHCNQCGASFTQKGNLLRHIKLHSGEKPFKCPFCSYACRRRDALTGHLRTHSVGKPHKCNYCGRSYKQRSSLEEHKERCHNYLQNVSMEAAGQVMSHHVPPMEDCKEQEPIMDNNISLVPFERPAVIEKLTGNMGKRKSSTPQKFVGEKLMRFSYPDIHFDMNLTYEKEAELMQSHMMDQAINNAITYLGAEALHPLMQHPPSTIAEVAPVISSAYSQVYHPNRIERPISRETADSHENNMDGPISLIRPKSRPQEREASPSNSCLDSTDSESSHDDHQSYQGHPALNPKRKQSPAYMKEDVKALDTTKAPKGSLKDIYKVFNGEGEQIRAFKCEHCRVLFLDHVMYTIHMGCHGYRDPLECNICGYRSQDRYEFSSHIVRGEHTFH
Chain of IKZF2 (Q96SW2 whole entry): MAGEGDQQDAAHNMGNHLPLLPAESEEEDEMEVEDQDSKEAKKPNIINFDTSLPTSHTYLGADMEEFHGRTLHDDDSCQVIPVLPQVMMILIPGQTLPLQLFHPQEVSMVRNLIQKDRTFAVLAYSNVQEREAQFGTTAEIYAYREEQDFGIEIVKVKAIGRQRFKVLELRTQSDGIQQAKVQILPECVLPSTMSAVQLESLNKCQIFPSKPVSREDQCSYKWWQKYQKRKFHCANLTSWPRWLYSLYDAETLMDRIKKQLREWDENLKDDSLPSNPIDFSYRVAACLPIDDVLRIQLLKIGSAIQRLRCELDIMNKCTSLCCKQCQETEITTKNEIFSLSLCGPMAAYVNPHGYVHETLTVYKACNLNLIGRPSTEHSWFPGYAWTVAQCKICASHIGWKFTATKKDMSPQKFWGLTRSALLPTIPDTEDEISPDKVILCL
Chain of IKZF2 (Q16531 2-1140 partner): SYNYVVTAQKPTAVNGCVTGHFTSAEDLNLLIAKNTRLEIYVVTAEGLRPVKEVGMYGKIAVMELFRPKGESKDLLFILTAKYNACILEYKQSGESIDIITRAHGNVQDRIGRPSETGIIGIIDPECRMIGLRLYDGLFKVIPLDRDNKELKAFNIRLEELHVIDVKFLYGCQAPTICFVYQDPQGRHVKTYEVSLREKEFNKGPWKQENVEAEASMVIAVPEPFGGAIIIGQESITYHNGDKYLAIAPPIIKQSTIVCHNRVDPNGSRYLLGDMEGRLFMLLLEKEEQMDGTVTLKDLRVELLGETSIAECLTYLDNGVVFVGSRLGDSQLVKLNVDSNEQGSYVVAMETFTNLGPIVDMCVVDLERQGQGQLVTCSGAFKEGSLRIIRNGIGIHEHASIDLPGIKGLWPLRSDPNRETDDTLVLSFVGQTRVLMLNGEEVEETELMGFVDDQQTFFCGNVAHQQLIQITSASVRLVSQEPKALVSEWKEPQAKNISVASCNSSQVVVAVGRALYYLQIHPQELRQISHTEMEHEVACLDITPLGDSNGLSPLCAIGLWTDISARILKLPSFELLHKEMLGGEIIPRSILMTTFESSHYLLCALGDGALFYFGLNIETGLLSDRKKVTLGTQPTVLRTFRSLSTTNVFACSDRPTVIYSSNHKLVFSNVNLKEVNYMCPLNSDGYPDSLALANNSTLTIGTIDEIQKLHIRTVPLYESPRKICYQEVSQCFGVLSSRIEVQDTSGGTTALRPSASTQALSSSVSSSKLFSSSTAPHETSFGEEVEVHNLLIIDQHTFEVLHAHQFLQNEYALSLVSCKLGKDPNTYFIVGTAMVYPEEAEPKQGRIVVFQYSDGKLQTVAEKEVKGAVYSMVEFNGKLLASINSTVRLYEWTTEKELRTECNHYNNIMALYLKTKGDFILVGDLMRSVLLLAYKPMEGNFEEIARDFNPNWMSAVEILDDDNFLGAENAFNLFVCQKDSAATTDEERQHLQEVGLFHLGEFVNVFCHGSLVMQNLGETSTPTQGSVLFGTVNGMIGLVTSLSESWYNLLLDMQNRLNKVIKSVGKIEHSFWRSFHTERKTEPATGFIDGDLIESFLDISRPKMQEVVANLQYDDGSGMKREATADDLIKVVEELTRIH

A further assay addresses IKZF1 (Homo sapiens (Human), UniProt Q13422+Q96SW2). The experiment in a line: In vitro IKZF1 HiBit Assay (HEK293T Flp-in-HiBiT-IKZF1 stable cell line). Particulars: HEK293T Flp-in-HiBiT-IKZF1 stable cell line, 6 hrs incubation; for DC50: read-out: IKZF1 HiBit DC50; for Dmax: HEK-293T, read-out: IKZF1 HiBit Dmax (%). Format: cell-based. Put shortly: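 Degradation was measured as loss of luminescence from the HiBiT-IKZF1 tag after 6 h compound treatment, with 0.1% final DMSO, in stable HEK293T Flp-in cells. Values were normalized to DMSO, giving the 50% degradation concentration and the maximal degradation range.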

For the next assay, the target named is CRBN/DDB1 (Homo sapiens (Human), UniProt Q96SW2). The assay is described as follows: IC50 measurements for binding to CRBN/DDB1 (HTRF). Conditions: His tagged CRBN+DDB, Cy5-labeled Thalidomide probe, one hour. The protocol: In vitro Assay: IC50 Measurements for binding to CRBN/DDB1 (Table E1)
Chain of CRBN/DDB1 (Q96SW2 whole entry, species assumed): as the sequence (Q96SW2 whole entry) above
Chain of CRBN/DDB1 (Q16531 whole entry partner, species assumed): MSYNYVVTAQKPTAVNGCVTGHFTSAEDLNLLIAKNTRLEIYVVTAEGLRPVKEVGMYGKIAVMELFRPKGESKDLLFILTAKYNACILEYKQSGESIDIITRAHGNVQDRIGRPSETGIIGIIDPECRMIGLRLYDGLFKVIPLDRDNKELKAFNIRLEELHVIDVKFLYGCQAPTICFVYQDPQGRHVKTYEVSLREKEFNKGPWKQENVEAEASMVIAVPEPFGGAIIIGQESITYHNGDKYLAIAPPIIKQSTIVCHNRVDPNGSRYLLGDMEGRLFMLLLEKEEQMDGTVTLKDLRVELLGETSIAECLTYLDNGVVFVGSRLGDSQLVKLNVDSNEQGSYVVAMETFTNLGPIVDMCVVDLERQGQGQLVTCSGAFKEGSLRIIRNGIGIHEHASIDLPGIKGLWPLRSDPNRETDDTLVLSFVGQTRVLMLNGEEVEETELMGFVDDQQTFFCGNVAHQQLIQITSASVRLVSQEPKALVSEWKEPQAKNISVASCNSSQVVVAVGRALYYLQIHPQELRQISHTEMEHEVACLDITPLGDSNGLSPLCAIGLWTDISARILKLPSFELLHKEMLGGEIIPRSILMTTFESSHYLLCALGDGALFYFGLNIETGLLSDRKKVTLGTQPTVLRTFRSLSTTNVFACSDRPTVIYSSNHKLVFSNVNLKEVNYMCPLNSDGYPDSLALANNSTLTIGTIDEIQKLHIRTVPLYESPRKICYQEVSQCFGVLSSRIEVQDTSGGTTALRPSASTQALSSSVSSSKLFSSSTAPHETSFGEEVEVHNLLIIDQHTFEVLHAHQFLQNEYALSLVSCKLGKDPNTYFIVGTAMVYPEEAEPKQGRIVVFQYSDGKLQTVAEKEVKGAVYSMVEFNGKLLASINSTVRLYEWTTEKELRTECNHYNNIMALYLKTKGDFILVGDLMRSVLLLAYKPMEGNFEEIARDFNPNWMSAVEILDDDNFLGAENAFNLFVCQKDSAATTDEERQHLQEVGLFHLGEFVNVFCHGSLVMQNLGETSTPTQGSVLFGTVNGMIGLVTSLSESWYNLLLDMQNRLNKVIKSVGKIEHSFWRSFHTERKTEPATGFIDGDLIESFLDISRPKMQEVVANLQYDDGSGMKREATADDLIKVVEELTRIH
The binding potency was determined using HTRF assay technology (Perkin Elmer). Compounds were serially diluted in DMSO and 0.2 μL volume was transferred to white 384-well plate. The reaction was conducted in total volume of 20 μL with addition of 2 nM His tagged CRBN+DDB−DLS7+CXU4 (Wuxi, catalogue #RP210521GA) to compounds followed by addition of 60 nM Fluorescent probe Cy5-labeled Thalidomide (Tenova Pharma, catalogue #T52461), and 0.4 nM of MAb Anti-6HIS Tb cryptate Gold (Cisbio, catalogue #61HI2TLA in the assay buffer (50 mM HEPES pH 7.5, 1 mM TCEP, 0.01% Brij-35, 50 mM NaCl, and 0.1% BSA). After one hour incubation at room temperature, the HTRF signals were read on Envision reader (Perkin Elemer). Data was analyzed using XLfit using four parameters dose response curve to determine IC50s. A: IC50<0.1 μM; B: 0.1 μM<IC50<[…]; C: 0.5 μM<IC50<1 μM; D: 1 μM<IC50<5 μM; E: 5 μM<IC50<10 μM

Chain of IKZF1 (Q13422 whole entry): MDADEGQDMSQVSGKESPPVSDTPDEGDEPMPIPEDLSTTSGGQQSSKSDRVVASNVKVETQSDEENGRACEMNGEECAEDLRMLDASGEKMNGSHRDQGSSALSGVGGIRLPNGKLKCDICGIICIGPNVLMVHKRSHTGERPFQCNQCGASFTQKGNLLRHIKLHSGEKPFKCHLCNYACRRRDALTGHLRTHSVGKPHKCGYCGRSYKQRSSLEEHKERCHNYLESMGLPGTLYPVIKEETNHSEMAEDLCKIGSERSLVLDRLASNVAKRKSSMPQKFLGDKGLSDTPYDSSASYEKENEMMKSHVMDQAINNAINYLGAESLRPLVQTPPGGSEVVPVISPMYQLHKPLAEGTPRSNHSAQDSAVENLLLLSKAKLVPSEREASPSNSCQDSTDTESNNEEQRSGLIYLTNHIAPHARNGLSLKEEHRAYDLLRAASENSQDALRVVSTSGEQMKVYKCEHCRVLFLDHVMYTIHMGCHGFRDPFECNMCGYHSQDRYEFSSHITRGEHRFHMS
Chain of IKZF1 (Q96SW2 whole entry): as the sequence (Q96SW2 whole entry) above
Chain of IKZF1 (Q16531 2-1140 partner): as the sequence (Q16531 2-1140 partner) above

With `O=C1CCC(N2Cc3cc(-c4cc(CN5CCC(CO)CC5)c5ccn(C6CC6)c5n4)ccc3C2=O)C(=O)N1` (centres unmarked) [Example 144, 3-(5-(1-cyclopropyl-4-((4-(hydroxymethyl)piperidin-1-yl)methyl)-1H-pyrrolo[2,3-b]pyridin-6-yl)-1-oxoisoindolin-2-yl) piperidine-2,6-dione], at IKZF2, the DC50 was 1 to 10 nM and the Dmax was > 80%. In addition, on IKZF1, the DC50 lay in the range of 10 to 100 nM and the Dmax is 20 to 40%. For the same compound, the IC50 on CRBN/DDB1 lay within 100 to 500 nM.
Regarding `CN1C2CCC1CN(Cc1cc(-c3ccc4c(c3)CN(C3CCC(=O)NC3=O)C4=O)nc3c1ccn3C)C2` (centres unmarked) [Example 311, 3-(5-(1-methyl-4-((8-methyl-3,8-diazabicyclo[3.2.1]octan-3-yl)methyl)-1H-pyrrolo[2,3-b]pyridin-6-yl)-1-oxoisoindolin-2-yl) piperidine-2,6-dione], on IKZF2, the DC50 was 1 to 10 nM and the Dmax was in the range of 60 to 80%. Moreover, at IKZF1, the DC50 is > 10000 nM and the Dmax was < 20%. On CRBN/DDB1, this compound yielded an IC50 of 500 to 1000 nM.
In the same order, the values of `Cn1ccc2c(CN3CCCC3)cc(-c3ccc4c(c3F)CN(C3CCC(=O)NC3=O)C4=O)nc21` (centres unmarked) [Example 75, 3-(4-fluoro-5-(1-methyl-4-(pyrrolidin-1-ylmethyl)-1H-pyrrolo[2,3-b]pyridin-6-yl)-1-oxoisoindolin-2-yl) piperidine-2,6-dione] are < 1 nM, > 80%, > 10000 nM, 20 to 40% and 100 to 500 nM.
For the compound `Nc1n[nH]c2c(CN3CCC(O)C3)cc(-c3ccc4c(c3)CN(C3CCC(=O)NC3=O)C4=O)nc12` (centres unmarked) [Example 196, 3-(5-(3-amino-7-((3-hydroxypyrrolidin-1-yl)methyl)-1H-pyrazolo[4,3-b]pyridin-5-yl)-1-oxoisoindolin-2-yl) piperidine-2,6-dione], on IKZF2, the DC50 lay in the range of 100 to 1000 nM and the Dmax lay in the range of 40 to 60%. On IKZF1, the DC50 was > 10000 nM and the Dmax is < 20%. Further, the IC50 on CRBN/DDB1 was in the range of 1000 to 5000 nM.
As for `O=C1CCC(N2Cc3cc(-c4cc(CN5CCCC5)c5cc[nH]c5n4)c(F)cc3C2=O)C(=O)N1` (centres unmarked) [Example 122, 3-(6-fluoro-1-oxo-5-(4-(pyrrolidin-1-ylmethyl)-1H-pyrrolo[2,3-b]pyridin-6-yl)isoindolin-2-yl) piperidine-2,6-dione], the figures for the DC50 at IKZF2 and on IKZF1 were 100 to 1000 nM and 1 to 10 nM, respectively. The Dmax at IKZF2 and on IKZF1 was 20 to 40% in each case. This compound also returned an IC50 at CRBN/DDB1 of 1000 to 5000 nM.
With `Cn1ccc2c(CN3CCC(n4cccn4)CC3)cc(-c3ccc4c(c3)CN(C3CCC(=O)NC3=O)C4=O)nc21` (centres unmarked) [Example 94, 3-(5-(4-((4-(1H-pyrazol-1-yl)piperidin-1-yl)methyl)-1-methyl-1H-pyrrolo[2,3-b]pyridin-6-yl)-1-oxoisoindolin-2-yl) piperidine-2,6-dione], the DC50 is 1 to 10 nM on IKZF2 and > 10000 nM at IKZF1. Moreover, the Dmax was 60 to 80% on IKZF2 and < 20% on IKZF1. The half-inhibitory concentration (IC50) on CRBN/DDB1 was < 100 nM.
Regarding `Cn1ccc2c(CN3CCC4(CCCC4)CC3)cc(-c3ccc4c(c3)CN(C3CCC(=O)NC3=O)C4=O)nc21` (centres unmarked) [Example 103, 3-(5-(4-((8-azaspiro[4.5]decan-8-yl)methyl)-1-methyl-1H-pyrrolo[2,3-b]pyridin-6-yl)-1-oxoisoindolin-2-yl) piperidine-2,6-dio], on IKZF2, the DC50 is 1 to 10 nM and the Dmax was > 80%. At IKZF1, the DC50 fell in the range of 10 to 100 nM and the Dmax is 20 to 40%. For the same compound, at CRBN/DDB1, the IC50 lay in the range of 100 to 500 nM.
For `Cn1ccc2c(CN3CC4COCC(C4)C3)cc(-c3ccc4c(c3)CN(C3CCC(=O)NC3=O)C4=O)nc21` (centres unmarked) [Example 70, 3-(5-(4-((3-oxa-7-azabicyclo[3.3.1]nonan-7-yl)methyl)-1-methyl-1H-pyrrolo[2,3-b]pyridin-6-yl)-1-oxoisoindolin-2-yl) piperidine-2,6-dione] the same measures were 1 to 10 nM, > 80%, > 10000 nM, < 20% and 1000 to 5000 nM.
In the case of `Cn1ccc2c(CN3CCCC3)cc(-c3cc4c(cc3F)C(=O)N(C3CCC(=O)NC3=O)C4)nc21` (centres unmarked) [Example 82, 3-(6-fluoro-5-(1-methyl-4-(pyrrolidin-1-ylmethyl)-1H-pyrrolo[2,3-b]pyridin-6-yl)-1-oxoisoindolin-2-yl) piperidine-2,6-dione], the results for the DC50 on IKZF2 and at IKZF1 were 100 to 1000 nM and > 10000 nM, respectively. In addition, the results for the Dmax on IKZF2 and at IKZF1 were 20 to 40% and < 20%, respectively. Besides, the IC50 on CRBN/DDB1 fell in the range of 5000 to 10000 nM.
For the compound `CC#CCn1ccc2c(CN3CCCC3)cc(-c3ccc4c(c3)CN(C3CCC(=O)NC3=O)C4=O)nc21` (centres unmarked) [Example 148, 3-(5-(1-(but-2-yn-1-yl)-4-(pyrrolidin-1-ylmethyl)-1H-pyrrolo[2,3-b]pyridin-6-yl)-1-oxoisoindolin-2-yl) piperidine-2,6-dione], at IKZF2, the DC50 was 1 to 10 nM and the Dmax was in the range of 60 to 80%. On IKZF1, the DC50 was > 10000 nM and the Dmax was < 20%. The compound further had an IC50 at CRBN/DDB1 of 100 to 500 nM.
For `O=C1CCC(N2Cc3cc(-c4cc(CN5CCCC5)c5ncn(C6CS(=O)(=O)C6)c5n4)ccc3C2=O)C(=O)N1` (centres unmarked) [Example 225, 3-(5-(3-(1,1-dioxidothietan-3-yl)-7-(pyrrolidin-1-ylmethyl)-3H-imidazo[4,5-b]pyridin-5-yl)-1-oxoisoindolin-2-yl) piperidine-2,6-dione] the same measures were < 1 nM, 20 to 40%, > 10000 nM, < 20% and 500 to 1000 nM.
In the case of `Cn1ccc2c(CN3CCC4(CC3)CC4)cc(-c3ccc4c(c3)CN(C3CCC(=O)NC3=O)C4=O)nc21` (centres unmarked) [Example 64, 3-(5-(4-((6-azaspiro[2.5]octan-6-yl)methyl)-1-methyl-1H-pyrrolo[2,3-b]pyridin-6-yl)-1-oxoisoindolin-2-yl) piperidine-2,6-dione], at IKZF2, the DC50 is < 1 nM and the Dmax is > 80%. Besides, on IKZF1, the DC50 was > 10000 nM and the Dmax fell in the range of 20 to 40%. Also, the IC50 on CRBN/DDB1 is 100 to 500 nM.
In the same order, the values of `O=C1CCC(N2Cc3cc(-c4nc(CN5CCCC5)c5ccn(C6CCC6)c5n4)ccc3C2=O)C(=O)N1` (centres unmarked) [Example 217, 3-(5-(7-cyclobutyl-4-(pyrrolidin-1-ylmethyl)-7H-pyrrolo[2,3-d]pyrimidin-2-yl)-1-oxoisoindolin-2-yl) piperidine-2,6-dione] are 1 to 10 nM, 60 to 80%, > 10000 nM, < 20% and 500 to 1000 nM.
Take `O=C1CCC(N2Cc3cc(-c4cc(CN5CCCC5)c5ccn(-c6ccccc6)c5n4)ccc3C2=O)C(=O)N1` (centres unmarked) [Example 139, 3-(1-oxo-5-(1-phenyl-4-(pyrrolidin-1-ylmethyl)-1H-pyrrolo[2,3-b]pyridin-6-yl)isoindolin-2-yl) piperidine-2,6-dione]: on IKZF2, the DC50 is 1 to 10 nM and the Dmax lay in the range of 60 to 80%. In addition, at IKZF1, the DC50 is 10 to 100 nM and the Dmax lay within 20 to 40%. The compound further came in with an IC50 on CRBN/DDB1 of 500 to 1000 nM.
`Cn1ccc2c(CN3CCC(F)CC3)cc(-c3ccc4c(c3)CN(C3CCC(=O)NC3=O)C4=O)nc21` (centres unmarked) [Example 301, 3-(5-(4-((4-fluoropiperidin-1-yl)methyl)-1-methyl-1H-pyrrolo[2,3-b]pyridin-6-yl)-1-oxoisoindolin-2-yl) piperidine-2,6-dione]: on IKZF2, the DC50 is < 1 nM and the Dmax was > 80%. On IKZF1, the DC50 was in the range of 10 to 100 nM and the Dmax lay within 20 to 40%. The compound further returned an IC50 at CRBN/DDB1 of 1000 to 5000 nM.
In the same order, the values of `CN(C)c1n[nH]c2c(CN3CCCC3)cc(-c3ccc4c(c3)CN(C3CCC(=O)NC3=O)C4=O)nc12` (centres unmarked) [Example 179, 3-(5-(3-(dimethylamino)-7-(pyrrolidin-1-ylmethyl)-1H-pyrazolo[4,3-b]pyridin-5-yl)-1-oxoisoindolin-2-yl) piperidine-2,6-dione] are < 1 nM, > 80%, 10 to 100 nM, 40 to 60% and 5000 to 10000 nM.
